The values below are quoted from earlier work in patent US7094421B2, “Plaster containing 4-biphenylacetic acid” (Teikoku Seiyaki Co., Ltd., priority 2000, dated 2006).

The conditions of this data set: solvent crotamiton.

As for `O=C(O)Cc1ccc(-c2ccccc2)cc1` [4-biphenylacetic acid], the “solubility of 4-biphenylacetic acid in crotamiton” value is recorded as “about 7%”.
